Measured values from patent US9765116B2, “Inhibitors of the Eph-A receptor and uses thereof” (Carmel Haifa University Economic Corporation Ltd., priority 2013, dated 2017).
Each block holds one substance with its values, some of them ahead of it.

Legend:
[1] = test system: rats; settings: subcutaneous, single dose 20 μl of 10 μg/μl, 1 hour after fear conditioning, relative to saline
Method: A fear conditioning in vivo model was performed as in example 3A, however, no cannula was introduced into the rats. […] A fear memory test was performed 24 hours after the injection.

[2] = molecular target: T1, EphA4 (Rattus norvegicus, UniProt D3ZZK3); assay: Pull down experiment with pep-ephrinA4 (FIG. 4B), EphA4; type: binding; settings: vs pep-control and agarose beads alone
[3] = molecular target: elongation factor 2 protein (eEF2) (Rattus norvegicus, UniProt P05197); assay: Pull down experiment with pep-ephrinA4, eEF2 control protein; type: binding
[4] = test system: male Sprague Dawley rats
Method: Subsequently, the neutral stimulus is administered to the groups of animals, and the animals' responses are analyzed. A test group of animals is administered a test agent which may inhibit the long term association in the memory of the animals between the neutral stimulus and the aversive event. If at a point in time about 24 hours after training the animals in the test group respond to the stimulus to a lesser degree than the animals in the control group without having other significant side effects, the test agent is determined to inhibit formation of long term memories. […] Short term memory formation was also tested in the current model by testing responses to stimulus 60 minutes after training.
In the current model, neutral stimulus provided to the animals was a tone and the aversive event was a mild footshock provided to the animals.
Long-term memory formation is believed to involve modifications in neural transmission and/or synaptic connections in neural networks in the area of the brain known as the lateral amygdala (LA.) In the current model, Peptide 1 was used a test agent and was administered directly to the LA.
In the model, male Sprague Dawley rats (each weighing about 250-300 grams), were used in the study (animals were obtained from Harlan Laboratories). In order to administer test agents to the LA of the rats, surgery was performed in which cannulas were inserted. To perform the surgery, rats were anesthetized with Xylazine 2% (15 milligrams per kilogram [mg/kg]) and Ketamine (120 mg/kg). Calmagine (Vetoquinol) (0.01 milliliters) was injected for analgesia before surgery. Guide stainless-steel cannulas (23 gauge) were implanted bilaterally 1.5 millimeters (mm) above the LA. The animals recovered for 5-7 days before behavior training.
Following surgery, rats were housed separately at 22±2° C. in a 12 hour light/dark cycle, with free access to food and water.
Rats were habituated to the training chamber and to the injection machine for 2 days for 30 min each day. On the next day the animals were subjected to the fear conditioning protocol. […]

[5] = test system: EphB2 receptor; settings: control protein
[6] = molecular target: T1, EphA4; assay: ephrinA4-induced EphA4 tyrosine phosphorylation in brain slices containing the amygdala (immunoprecipitation, Western blot); type: cell-based; set-up: brain slices that contain the amygdala were divide to 3 groups; from tissue; host or cells: brain slices containing the amygdala; settings: brain slices in Ringer's solution stimulated with ephrinA4-Fc for 20 minutes, compared to Ringer's solution control
Method: Further, brain slices that contain the amygdala were divide to 3 groups: 1) placed in Ringer's solution, 2) placed in Ringer's solution and stimulated with ephrinA4-Fc for 20 minutes or 3) placed in Ringer's solution with pep-ephrinA4 for 20 minutes followed by stimulation with ephrinA4-Fc for 20 minutes (n=3 each). Protein extracts from the slices were immunoprecipitated with anti-EphA4 antibody and subjected to Western blot with anti-EphA4 or anti-phosphotyrosine antibodies.

T1 sequence (D3ZZK3 20-986): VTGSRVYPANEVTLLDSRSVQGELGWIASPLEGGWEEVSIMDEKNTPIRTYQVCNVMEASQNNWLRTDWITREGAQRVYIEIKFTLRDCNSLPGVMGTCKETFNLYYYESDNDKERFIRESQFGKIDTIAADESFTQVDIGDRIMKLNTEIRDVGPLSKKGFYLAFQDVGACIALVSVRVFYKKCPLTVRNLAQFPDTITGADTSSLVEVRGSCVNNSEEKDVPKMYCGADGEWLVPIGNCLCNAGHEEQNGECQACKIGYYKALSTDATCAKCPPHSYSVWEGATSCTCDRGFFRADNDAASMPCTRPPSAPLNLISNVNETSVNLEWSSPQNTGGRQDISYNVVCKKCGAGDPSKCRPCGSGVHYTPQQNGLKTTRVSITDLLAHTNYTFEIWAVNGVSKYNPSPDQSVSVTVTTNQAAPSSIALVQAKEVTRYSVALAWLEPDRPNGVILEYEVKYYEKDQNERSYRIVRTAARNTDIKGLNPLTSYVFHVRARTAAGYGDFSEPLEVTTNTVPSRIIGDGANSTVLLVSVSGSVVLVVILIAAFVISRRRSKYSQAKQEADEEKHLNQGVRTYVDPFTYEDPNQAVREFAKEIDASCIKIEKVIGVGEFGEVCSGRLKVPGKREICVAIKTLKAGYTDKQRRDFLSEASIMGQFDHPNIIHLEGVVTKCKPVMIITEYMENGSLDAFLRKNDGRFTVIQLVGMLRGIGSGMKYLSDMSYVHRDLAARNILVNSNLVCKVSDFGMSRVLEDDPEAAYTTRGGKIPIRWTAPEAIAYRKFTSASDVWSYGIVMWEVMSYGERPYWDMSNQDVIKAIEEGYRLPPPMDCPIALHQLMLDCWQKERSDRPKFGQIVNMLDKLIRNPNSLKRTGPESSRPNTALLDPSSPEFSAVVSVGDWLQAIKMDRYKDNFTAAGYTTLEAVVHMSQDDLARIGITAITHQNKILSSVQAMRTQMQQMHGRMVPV

Substance: Ac-RRQRYTPFPLGFE-Lys(Biotin)-NH2-0H [peptide 1]
- freezing in fear memory test 24 hours after the injection [1]: significantly reducing freezing
- interaction with EphA4 (pull down) [2]: interacts
- interaction with elongation factor 2 protein (eEF2) (pull down) [3]: did not interact
- freezing 24 hours after training (long term fear memory) ([4]; 0.5 μl of 10 μg/μl per amygdala into LA 30 minutes before training, vs saline, peptide 2 and misplaced peptide 1): froze significantly less
- rate of fear reduction over the trials ([4]; LA microinjection, compared to controls): did not alter
- freezing 1 hour after training (formation of short term memory) ([4]; LA microinjection, no main effect for groups (p>0.4)): does not inhibit
- interaction with EphB2 receptor (pull down) [5]: did not interact

Substance: Ac-RRWSGYEACTAEG-Lys(Biotin)-NH2-0H [peptide 2, reference compound]
- interaction with EphA4 (pull down) [2]: not

- EphA4 phosphorylation after stimulation [6]: significant increase
Substance: ephrinA4: ephrinA4-Fc used to stimulate brain slices for 20 minutes (RRQRYTPFPLGFEK)
